Changes are numbered by the printed parent chain. Like-named read-outs stand apart in the source and are kept apart here. Square brackets hold non-standard residues; d marks the D form. Peptide text beside a SMILES is read from it. pY = N[C@@H](Cc1ccc(OP(=O)(O)O)cc1)C(=O)O
Columns and labels:
[1] = target: T1, SHIP2-SH2 (wild type) (Homo sapiens, UniProt O15357); assay: Fluorescence polarization binding of FAM-labeled phosphopeptides to wild-type SHIP2-SH2; conditions: FP assay, N-terminally FAM-labeled phosphopeptide 100 nM, 20 mM Tris, 100 mM NaCl, 10 mM DTT, 0.02% NaN3, pH 7.5, each reaction repeated three times, averaged, ± standard error of curve fitting, read-out: dissociation constant (KD) for wild-type SHIP2-SH2
T1 construct: The SHIP2 SH2 domain (hereafter represented by SHIP2-SH2); made in house
T1 sequence (O15357 21-117 limits assumed): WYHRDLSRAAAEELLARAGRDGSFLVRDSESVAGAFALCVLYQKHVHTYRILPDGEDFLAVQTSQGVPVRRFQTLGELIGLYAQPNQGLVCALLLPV
Method: (§1) Expression and purification of wild-type SHIP2-SH2 and its mutants including R28A, S49A, E50A, S51A, R70A, S84A and Q107A were carried out using the previously described method, and circular dichroism (CD) spectra were collected to confirm no obvious secondary structure change of the mutants. The purified proteins were concentrated to a final concentration of 0.2 mM for NMR experiments in the NMR buffer containing 90% H2O/10% D2O (v/v), 20 mM Tris, 100 mM NaCl, 10 mM DTT and 0.02% NaN3 at pH 7.5. Peptides derived from the four types of EPIYA motifs were synthesized by GL Biochem Ltd. (Shanghai, China). Tyr-phosphorylated peptides included: 8-mer (E-P-I-pY-A-K-V-N) and 13-mer (E-N-E-P-I-pY-A-K-V-N-K-K-K) EPIYA-A; 8-mer (E-P-I-pY-A-Q-V-A) and 13-mer (P-E-E-P-I-pY-A-Q-V-A-K-K-V) EPIYA-B; and 8-mer EPIYA-CD (E-P-I-pY-A-T-I-D), 13-mer EPIYA-C (S-P-E-P-I-pY-A-T-I-D-D-L-G) and 13-mer EPIYA-D (S-P-E-P-I-pY-A-T-I-D-F-D-E). The purities of the peptides were determined to be above 98% by high performance liquid chromatography (HPLC) and the molecular weights were confirmed by electrospray ionization mass spectrometry (ESI-MS).
(§2) The used phosphopeptides for different versions of CagA EPIYA A/B/C/D motifs were labeled with FAM at the N-terminal end and dissolved in a buffer containing 20 mM Tris, 100 mM NaCl, 10 mM DTT and 0.02% NaN3, at pH 7.5. The peptide concentration was kept at 100 nM, while wild-type SHIP2-SH2 and its mutants were serially diluted with the concentrations ranging from micromolar to nanomolar, and then mixed with the peptide, respectively. FP values of FAM-labeled peptides bound by SHIP2-SH2 were measured using a SpectraMax i3x multi-mode plate reader (Molecular Devices) by recording the excitation at 485 nm and emission at 528 nm. Each binding reaction was repeated three times, and the polarization values were averaged (given in units of mP). The averaged polarization value of each titration point was subtracted from that of the free peptide to obtain the final value. The dissociation constants (KD) were calculated using the final polarization value of each titration point as previously described.

[2] = target: T2, SHIP2-SH2 R28A (Homo sapiens, UniProt O15357, R28A); assay: Fluorescence polarization binding, SHIP2-SH2 mutant R28A; conditions: FP assay; FAM-labeled 13-mer phosphopeptide 100 nM; pH 7.5; n = 3 averaged; ± standard error of fitting; SEM; read-out: dissociation constant (KD) for SHIP2-SH2 R28A
T2 construct: The SHIP2 SH2 domain (hereafter represented by SHIP2-SH2); made in house
T2 sequence (O15357 21-117 R28A limits assumed): T1 sequence (O15357 21-117 limits assumed) with R8A
Method: as §1, §2

[3] = target: T3, SHIP2-SH2 S49A (Homo sapiens, UniProt O15357, S49A); assay: Fluorescence polarization binding, SHIP2-SH2 mutant S49A; conditions: FP assay; FAM-labeled 13-mer phosphopeptide 100 nM; pH 7.5; n = 3 averaged; ± standard error of fitting; SEM; read-out: dissociation constant (KD) for SHIP2-SH2 S49A
T3 construct: The SHIP2 SH2 domain (hereafter represented by SHIP2-SH2); made in house
T3 sequence (O15357 21-117 S49A limits assumed): T1 sequence (O15357 21-117 limits assumed) with S29A
Method: as §1, §2

[4] = target: T4, SHIP2-SH2 E50A (Homo sapiens, UniProt O15357, E50A); assay: Fluorescence polarization binding, SHIP2-SH2 mutant E50A; conditions: FP assay; FAM-labeled 13-mer phosphopeptide 100 nM; pH 7.5; n = 3 averaged; ± standard error of fitting; SEM; read-out: dissociation constant (KD) for SHIP2-SH2 E50A
T4 construct: The SHIP2 SH2 domain (hereafter represented by SHIP2-SH2); made in house
T4 sequence (O15357 21-117 E50A limits assumed): T1 sequence (O15357 21-117 limits assumed) with E30A
Method: as §1, §2

[5] = target: T5, SHIP2-SH2 S51A (Homo sapiens, UniProt O15357, S51A); assay: Fluorescence polarization binding, SHIP2-SH2 mutant S51A; conditions: FP assay; FAM-labeled 13-mer phosphopeptide 100 nM; pH 7.5; n = 3 averaged; ± standard error of fitting; SEM; read-out: dissociation constant (KD) for SHIP2-SH2 S51A
T5 construct: The SHIP2 SH2 domain (hereafter represented by SHIP2-SH2); made in house
T5 sequence (O15357 21-117 S51A limits assumed): T1 sequence (O15357 21-117 limits assumed) with S31A
Method: as §1, §2

[6] = target: T6, SHIP2-SH2 R70A (Homo sapiens, UniProt O15357, R70A); assay: Fluorescence polarization binding, SHIP2-SH2 mutant R70A; conditions: FP assay; FAM-labeled 13-mer phosphopeptide 100 nM; pH 7.5; n = 3 averaged; ± standard error of fitting; SEM; read-out: dissociation constant (KD) for SHIP2-SH2 R70A
T6 construct: The SHIP2 SH2 domain (hereafter represented by SHIP2-SH2); made in house
T6 sequence (O15357 21-117 R70A limits assumed): T1 sequence (O15357 21-117 limits assumed) with R50A
Method: as §1, §2

[7] = target: T7, SHIP2-SH2 S84A (Homo sapiens, UniProt O15357, S84A); assay: Fluorescence polarization binding, SHIP2-SH2 mutant S84A; conditions: FP assay; FAM-labeled 13-mer phosphopeptide 100 nM; pH 7.5; n = 3 averaged; ± standard error of fitting; SEM; read-out: dissociation constant (KD) for SHIP2-SH2 S84A
T7 construct: The SHIP2 SH2 domain (hereafter represented by SHIP2-SH2); made in house
T7 sequence (O15357 21-117 S84A limits assumed): T1 sequence (O15357 21-117 limits assumed) with S64A
Method: as §1, §2

[8] = target: T8, SHIP2-SH2 Q107A (Homo sapiens, UniProt O15357, Q107A); assay: Fluorescence polarization binding, SHIP2-SH2 mutant Q107A; conditions: FP assay; FAM-labeled 13-mer phosphopeptide 100 nM; pH 7.5; n = 3 averaged; ± standard error of fitting; SEM; read-out: dissociation constant (KD) for SHIP2-SH2 Q107A
T8 construct: The SHIP2 SH2 domain (hereafter represented by SHIP2-SH2); made in house
T8 sequence (O15357 21-117 Q107A limits assumed): T1 sequence (O15357 21-117 limits assumed) with Q87A
Method: as §1, §2

[9] = target: SHIP2-SH2; conditions: 6-mer phosphopeptides (-2 to +3), both with Leu at pY+3; cited from earlier work
Source text: When the natural phosphopeptides interacting with SHIP2-SH2 were ranked according to their affinities to SHIP2-SH2, it was seen that the affinity was related to the residue type at the pY+3 position (Figure 6F). The ligands showing high and moderate affinities have Leu (L) or Ile (I) residues at this site, while ligands with a low affinity have Val (V) at this site. These indicate that SHIP2-SH2 may have a preference for the hydrophobic side chain of the residue at the pY+3 site of its Tyr-phosphorylated ligand.

[10] = target: T1, SHIP2-SH2 (wild type); conditions: summary Figure 6F, value from the authors' earlier NMR/FP study, cited from earlier work
Source text: Figure 6 The binding interface and affinity of SHIP2-SH2 for different native ligands. The binding interface of SHIP2-SH2 for FcgR2B ITIM (A), CagA EPIYA-C/D (B), c-MET C-terminus (C), CagA EPIYA-A/B (D) is colored in blue. The additional interface of SHIP2-SH2 for 13-mer FcgR2B ITIM compared to 8-mer FcgR2B ITIM is colored in green. The interface was drawn according to the residues of SHIP2-SH2 showing a CSP greater than 0.2 ppm in NMR titration experiments with respective ligand. (E) The summarized three regions of SHIP2-SH2 which are differently engaged for binding different ligands are hig ...

Row | Molecule | Kd ([1]; SEM) [µM] | Kd [2] [µM] | Kd [3] [µM] | Kd [4] [µM] | Kd [5] [µM] | Kd [6] [µM] | Kd [7] [µM] | Kd [8] [µM] | other results
1 | CC[C@H](C)[C@H](NC(=O)[C@@H]1CCCN1C(=O)[C@H](CCC(=O)O)NC(=O)[C@H](CCC(=O)O)NC(=O)[C@@H]1CCCN1)C(=O)N[C@@H](Cc1ccc(OP(=O)(O)O)cc1)C(=O)N[C@@H](C)C(=O)N[C@@H](CCC(N)=O)C(=O)N[C@H](C(=O)N[C@@H](C)C(=O)N[C@@H](CCCCN)C(=O)N[C@@H](CCCCN)C(=O)N[C@H](C(=O)O)C(C)C)C(C)C [EPIYA-B] (H-PEEPI[pY]AQVAKKV-OH) | 18.6 ± 1.25 | 143 ± 17.4 | 303 ± 16.2 | 6.6 ± 0.6 | 171 ± 36 | 532 ± 47.5 | 17.9 ± 0.95 | 21.4 ± 1.33 | 
2 | CC[C@H](C)[C@H](NC(=O)[C@@H](NC(=O)[C@H](C)NC(=O)[C@H](Cc1ccc(OP(=O)(O)O)cc1)NC(=O)[C@@H](NC(=O)[C@@H]1CCCN1C(=O)[C@H](CCC(=O)O)NC(=O)[C@@H]1CCCN1C(=O)[C@@H](N)CO)[C@@H](C)CC)[C@@H](C)O)C(=O)N[C@@H](CC(=O)O)C(=O)N[C@@H](Cc1ccccc1)C(=O)N[C@@H](CC(=O)O)C(=O)N[C@@H](CCC(=O)O)C(=O)O [EPIYA-D] | 3.16 ± 0.13 | 15.5 ± 2.77 | 76.8 ± 5.16 | 1.14 ± 0.16 | 24.6 ± 2.23 | 116 ± 6.61 | 2.69 ± 0.19 | 3.46 ± 0.2 | 
3 | ITpYSLL [6-mer FcgR2B ITIM, 6-mer FcgR2B ITIM phosphopeptide (-2 to +3) of a previous SPR study] |  |  |  |  |  |  |  |  | KD for SHIP2-SH2 by SPR (comparison in words) [9]: comparable KD values
4 | CC[C@H](C)[C@H](NC(=O)[C@@H]1CCCN1C(=O)[C@H](CCC(=O)O)NC(=O)[C@H](CC(N)=O)NC(=O)[C@@H](N)CCC(=O)O)C(=O)N[C@@H](Cc1ccc(OP(=O)(O)O)cc1)C(=O)N[C@@H](C)C(=O)N[C@@H](CCCCN)C(=O)N[C@H](C(=O)N[C@@H](CC(N)=O)C(=O)N[C@@H](CCCCN)C(=O)N[C@@H](CCCCN)C(=O)N[C@@H](CCCCN)C(=O)O)C(C)C [EPIYA-A] (H-ENEPI[pY]AKVNKKK-OH) | 23.4 ± 1.03 | 133 ± 6.95 | 419 ± 18.6 | 8.28 ± 0.67 | 180 ± 37.4 | 539 ± 24.2 | 16.4 ± 0.47 | 25.5 ± 1.5 | 
5 | FcgR2B: Tyr-phosphorylated FcgR2B-ITIM peptide from the authors' previous study (ENTITYSLLMHPD; not fully specified; phospho-Tyr292 (ITIM tyrosine); an 8-mer form (289-296, pY-3 to pY+4) was also used in the cited study) |  |  |  |  |  |  |  |  | Kd ([10]; read-out: Binding Affinities KD for SHIP2-SH2 (FcgR2B ITIM phosphopeptide)): 0.4 µM
6 | CC[C@H](C)[C@H](NC(=O)[C@@H](NC(=O)[C@H](C)NC(=O)[C@H](Cc1ccc(OP(=O)(O)O)cc1)NC(=O)[C@@H](NC(=O)[C@@H]1CCCN1C(=O)[C@@H](N)CCC(=O)O)[C@@H](C)CC)[C@@H](C)O)C(=O)N[C@@H](CC(=O)O)C(=O)O [8-mer EPIYA-CD] (H-EPI[pY]ATID-OH) |  |  |  |  |  |  |  |  | Kd [1]: 4.45 µM
7 | CC[C@H](C)[C@H](NC(=O)[C@@H](NC(=O)[C@H](C)NC(=O)[C@H](Cc1ccc(OP(=O)(O)O)cc1)NC(=O)[C@@H](NC(=O)[C@@H]1CCCN1C(=O)[C@H](CCC(=O)O)NC(=O)[C@@H]1CCCN1C(=O)[C@@H](N)CO)[C@@H](C)CC)[C@@H](C)O)C(=O)N[C@@H](CC(=O)O)C(=O)N[C@@H](CC(=O)O)C(=O)N[C@@H](CC(C)C)C(=O)NCC(=O)O [EPIYA-C] (H-SPEPI[pY]ATIDDLG-OH) | 2.96 ± 0.14 | 12.9 ± 1.38 | 77.5 ± 3.12 | 0.96 ± 0.14 | 22.4 ± 2.88 | 119 ± 4.93 | 2.79 ± 0.18 | 2.78 ± 0.14 | 
8 | c-MET: Y1356-phosphorylated c-MET C-terminus peptide from the authors' previous study (NATYVNVK; not fully specified; phospho-Tyr1356) |  |  |  |  |  |  |  |  | Kd ([10]; read-out: Binding Affinities KD for SHIP2-SH2 (c-MET phosphopeptide)): 7.43 µM
9 | GGpYMTL [FcgR2A ITAM, 6-mer FcgR2A ITAM phosphopeptide (−2 to +3) of a previous SPR study] |  |  |  |  |  |  |  |  | KD for SHIP2-SH2 by SPR (comparison in words) [9]: comparable KD values
